According to a melting point compilation (Tetko et al.; mined from patent text by program, amines drawn as free bases though some values may be those of a salt):

Compound | melting point [°C]
CSC(=O)N1c2ccccc2C(=O)N(C(C)C)S1(=O)=O | 125 to 127
O=C(O)Cc1ccc(OCc2ccc3ccccc3n2)c(-n2cccc2)c1 | 173
O=[N+]([O-])c1ccccc1C(=C(Br)Br)c1ccc(F)cc1 | 99 to 100
CCCc1c(O)c(Cl)cc(C(C)=O)c1O | 96
Cc1nc(-c2ccc(Cl)cc2)sc1C(=O)NCc1ccc(OC(C)(C)C(=O)O)cc1 | 131
CC(C)(C)OC(=O)N1CCC(NC(=O)c2ccc(-n3cccn3)cc2)CC1 | 170 to 171
CCCCNC(=O)C(C)n1nnc2ccc(Oc3cc(F)c(C(F)(F)F)c(Cl)c3)cc21 (configuration not stated) | 142 to 143
CC(=O)Oc1c2c(c3ccccc3c1OC(=O)CNC(=O)OC(C)(C)C)OC(C)(C)CC2 | 177
O=C(O)CNC(=O)c1c(O)n(C2CCCCC2)c(=O)n(C2CCCC2)c1=O | 222 to 224
CC1Cc2c(c(Cl)cc(F)c2N2C(=O)C3=C(CCCC3)C2=O)O1 (configuration not stated) | 169 to 171
Clc1ccc2c(c1)oc1cc(OCCn3ccnc3)ccc12 | 150 to 151
CCOc1cc(OC)cc(OP(=O)(O)O)c1C(=O)C=Cc1ccc(OC)cc1 | 72 to 75
CCCCc1c(C(=O)N(C)Cc2ccc3c(Br)c(OCc4nnn[nH]4)ccc3c2)c2ccccc2n1C | 147 to 149
CC(=O)Oc1cccc(Br)c1 | 33 to 40
Cc1cnc(C2=NC(C)(C(C)C)C(=O)N2)c(C(=O)C(=O)N(C)c2ccccc2)c1 (configuration not stated) | 153 to 156
CCCN(CCC)CCc1ccc(OC)c(C(=O)O)c1OC | 174 to 177
COc1cc(Cl)c2nc(-c3ccc(OC)c(F)c3)cc(Br)c2c1 | 156 to 157
Cc1nc(C[C@H]2CC[C@@](C)(NCC(=O)N3C[C@@H](F)C[C@H]3C#N)C2(C)C)no1 | 121 to 123
CC(C(=O)N(C)c1ccccc1)n1c(-c2ccc(Cl)cc2)nc2cccnc21 (configuration not stated) | 174 to 177
CCOCc1nc2c(N)nc3cc(-c4cccc(C(=O)N5CCOCC5)c4)cnc3c2n1CC(C)(C)O | 149 to 152
Cc1nc2c(N)nc3c(c2n1CC(C)C)CCCC3 | 170 to 172
CC(C)=CCOc1ccc(C(=O)C=Cc2ccc(C(C)(C)C)cc2)c(OCC(=O)O)c1 | 136 to 139
CCc1cc(OCc2ccc(-c3ccccc3C(=O)O)cc2)c2ccccc2n1 | 204 to 205
O=[N+]([O-])C=Cc1cnc2c(OCc3ccccc3)cccn12 | 204

Compound | melting point [°C]
CCCCC(CC)COc1ccc(-c2nc(-c3ccc(OCC(CC)CCCC)cc3O)nc(-c3cccn3Cc3ccccc3)n2)c(O)c1 (configuration not stated) | 66 to 68
CO[C@@H](C(=O)N[C@H]1CC[C@@H](OC(=O)Cc2ccc(Cl)c(Cl)c2)CNC1=O)[C@H](O)[C@@H](O)[C@H](O)/C=C/C(C)(C)C | 132 to 136
CCCn1nc(C(C)(F)F)nc1Cc1ccc(-c2ccccc2-c2nnn[nH]2)nc1 | 200
O=C(NNC(=O)C(O)c1cccc(O)c1)c1c(O)cc(O)cc1Cl (configuration not stated) | 230 to 231
CC(C)(C)OC(=O)[C@@H](Cc1ccccc1)NC(=O)C1CN(c2ccc(C(N)=S)cc2)C(=O)O1 (some centres not stated) | 167 to 169
O=C1C(Cc2ccccc2)CCCCCC1Cc1ccccc1 (configuration not stated) | 66 to 68
C=C(C)Cn1c(S)nc2c(cnn2C)c1=O | 158 to 160
O=c1[nH]c2ccc(-c3cc(=O)c4ccccc4o3)cc2o1 | 348
Cc1c(NC(=O)OCc2ccccc2)cccc1C(C[N+](=O)[O-])c1c[nH]c2cc(OC3CCOC3)ccc12 (configuration not stated) | 130
Cn1c(Oc2ccc(-n3c4ncccc4n4ccnc34)cc2)nc2ccccc21 | 232 to 234
CCCN(CCC(O)c1csc2ccc(F)cc12)C1COc2c(F)ccc(C(N)=O)c2C1 (configuration not stated) | 117
O=C1CCC(c2ccc(N=C3NCCN3)cc2)=NN1 | 235 to 236
CSc1nccc(-c2ccc(NC(=O)c3cc(F)cc(N4CCOCC4)c3)c3ccccc23)n1 | 135 to 138
CC(ON(C(C)(C)CO)C(C)(C)CO)c1ccccc1 (configuration not stated) | 79 to 81
COCCc1nc2cnc3cc(OCc4ccccc4)ccc3c2n1CC(C)(C)O | 170 to 172
CCC(C)COc1ccc(-c2ccc(OS(=O)(=O)c3ccc(C)cc3)cc2)cc1 (configuration not stated) | 94 to 97
N#Cc1ccccc1-c1cccc(-c2cnc3nc(C(F)(F)F)cnn23)c1F | 167 to 168
COC(=O)c1cccc(-c2cccc3c2nc(N(C)c2cccc(C(F)(F)F)c2)n3C)c1 | 148 to 149
CCOC(=O)c1c(C(F)(F)F)[nH]cc(-c2cc(OC(C)C)c(Cl)cc2F)c1=O | 118 to 119
O=C1C2CC3CC1CC(c1cc(Br)ccc1OCc1ccccc1)(C3)C2 | 163 to 165
Cc1cc(N)c(S(N)(=O)=O)cc1-c1ccccn1 | 229 to 231
O=C(Nc1ccc(Br)cc1CO)C(F)(F)F | 97 to 103
COc1cc2c(cc1OC(C)C)-c1c(-c3cccs3)c3c(n1CC2)C(=O)N(C(C)C)CCN(C(=O)OC(C)(C)C)C3 | 205 to 206
